Results published in paper PMC11395145, “The Archetypal Gamma-Core Motif of Antimicrobial Cys-Rich Peptides Inhibits H^+-ATPases in Target Pathogens” (International Journal of Molecular Sciences, 2024).
pIC50: −log10 of the molar value.

What was measured:
[1] = system: Candida albicans ATCC 10231; assay: Microbicidal (spread-plate cell viability) assay, candidacidal activity; type: cell-based; details: for pIC50: 90 min, 37 °C, 10 mM Tris-HCl pH 7.4, 10^6 cells/mL, CFU plating, estimated, read-out: IC50 (concentration that caused 50% reduction in viable counts) against C. albicans; for effect of high external K^+ on candidacidal activity: Tris buffer with 50 mM KCl vs without
Description: (§1) First, we tested the antimicrobial activity of Kal-1 and a shorter Kal-1-derived peptide (Kdp15), both containing the complete γ-core signature of human lactoferrin, against C. albicans and P. aeruginosa. Microbicidal (cidal) activity was determined after 90 min of incubation (37 °C; pH 7.4) with a range of concentrations of each hLf-derived peptide.
(§2) Figure 1 Cell viability and membrane permeabilization assays. C. albicans or P. aeruginosa (10^6 cells/mL) were incubated (90 min, 37 °C) with each peptide/protein at the indicated concentrations. Aliquots were plated on SDA or […], and colonies were counted after 24–48 h (C. albicans) or 24 h (P. aeruginosa). At each point, samples were stained with propidium iodide (PI) and intracellular PI incorporation, indicative of membrane permeabilization, was quantified by flow cytometry. The relative cell viability (blue lines) and cellular permeabilization (red lines) were calculated as the percentage of untreated cells. Human lactoferrin (hLf) and the peptide Lfpep were used as negative and positive controls of cellular permeabilization, respectively.
(§3) Microbial susceptibility to the peptides was determined in a spread-plate assay as described previously. Briefly, two-fold serially diluted peptides were incubated (37 °C) with approximately 10^6 cells/mL in Tris buffer (10 mM Tris-HCl, pH 7.4). After 90 min of incubation with the peptides, aliquots were removed and plated in duplicate on an appropriate agar plate for each species (SDA for C. albicans, TSA for P. aeruginosa). The plates were incubated for 24–48 h at 30 °C (C. albicans) or 24 h at 37 °C (P. aeruginosa) for enumeration. The cell viability values, expressed as colony forming units (CFUs), were determined relative to incubation without added peptides and represent the mean ± standard deviation (±SD) of at least three independent determinations. For inhibition assays, the cell suspensions were preincubated (15 min at 37 °C) with the corresponding inhibitors before the addition of peptides. Water-insoluble inhibitors were prepared in DMSO, such that the final assay volume was ≤1%. Other specific experimental inhibition conditions are described where appropriate. The IC50 value is expressed as the concentration that caused 50% reduction in viable counts.

[2] = system: Pseudomonas aeruginosa 10145 (PAO1); assay: Microbicidal (spread-plate cell viability) assay, pseudomonacidal activity; type: cell-based; details: for pIC50: 90 min, 37 °C, 10 mM Tris-HCl pH 7.4, 10^6 cells/mL, CFU plating, read-out: IC50 (concentration that caused 50% reduction in viable counts) against P. aeruginosa; for effect of high external K^+ on pseudomonacidal activity: Tris buffer with 50 mM KCl vs without
Description: as §1, §2, §3

C. albicans cells [3] = assay: Cell membrane permeability assay (propidium iodide, flow cytometry); type: cell-based, Candida albicans; details: 90 min, 37 °C, range of concentrations, PI 9 μM
Description: (§4) To determine whether Kal-1 and Kdp15 exert a permeabilizing effect on fungal or bacterial membranes, the cellular influx of the fluorescent nucleic-acid-binding dye propidium iodide (PI) was assessed. As PI itself cannot permeate through an intact phospholipid bilayer, only permeabilized cells take up PI, resulting in DNA intercalation and fluorescence.
(§5) Flow cytometry was used to assess the ability of peptides to permeabilize plasma membranes of cells in incorporation of the DNA intercalating dye propidium iodide (PI). C. albicans or P. aeruginosa cells (10^6 cells/mL) in Tris buffer were incubated with two-fold serially diluted peptides for 90 min at 37 °C and subsequently reincubated with PI (9 μM, final concentration) for 5 min. The suspensions were centrifuged at 1100× g for 10 min and subsequently washed with Tris buffer to remove any unbound PI. The peptide Lfpep was used to disrupt the cytoplasmic membrane (positive control). Cell fluorescence was monitored using a Cytomics FC500 Flow Cytometer (Beckman Coulter Life Sciences, Indianapolis, IN, USA). The PI fluorescence was excited at a wavelength of 488 nm and emission was registered at 610 nm. For each treatment, 20,000 events were measured. Data were acquired and analyzed using CytExpert 2.1 software. Results were expressed as the percentage of PI-positive cells with respect to the unstained cells (control). […]

P. aeruginosa cells [4] = assay: as above; type: cell-based, Pseudomonas aeruginosa; details: 90 min, 37 °C, range of concentrations, PI 9 μM
Description: as §4, §5

C. albicans cells [5] = assay: Oxygen consumption measurement (Clark-type electrode); type: cell-based, Candida albicans; details: 5 × 10^6 cells/mL, peptides at IC50, piericidin A 32 μM, at least 30 min, 25 °C
Description: (§6) Figure 3 Effect of cellular respiration on the microbicidal activity of hLf γ-core-containing peptides. (A,C) Oxygen consumption was measured in C. albicans and P. aeruginosa cellular suspensions in the absence (control) or the presence of kaliocin-1 (Kal-1), Kdp15, or human lactoferrin (hLf), and piericidin A (positive control). (B,D) Effect of cellular respiration on the microbicidal activity of hLf γ-core-containing peptides. Cells (10^6 cells/mL) were pre-incubated (15 min, 37 °C) with 32 μM piericidin A and incubated for 90 min at 37 °C with the peptides hLf or BM2. The cell viability was determined by means of the plate counting method. The results are the mean ± SD from duplicates of at least three independent experiments. * p < 0.05, ** p < 0.01, and *** p < 0.001 were used.
(§7) C. albicans or P. aeruginosa cells were grown to the mid-logarithmic phase, washed twice in Tris buffer, and resuspended in the same buffer, as described in [9, 10]. Briefly, cells (5 × 10^6 cells/mL) were pre-incubated for 15 min at 37 °C with the peptides (IC50). […] Oxygen consumption was measured using a Clark-type oxygen electrode (Dual digital-model 20, Rank Brothers Ltd., Cambridge, UK) in a closed jacketed chamber maintained at 25 °C. […] The viability of the cells was determined at 30 min by removing aliquots from the oxygen chambers and plating the subsequent dilutions on SDA or TSA plates.

P. aeruginosa cells [6] = assay: as above; type: cell-based, Pseudomonas aeruginosa; details: 5 × 10^6 cells/mL, peptides at IC50, piericidin A 32 μM, at least 30 min, 25 °C
Description: as §6, §7

C. albicans cells [7] = assay: Measurement of intracellular ATP (BacTiter-Glo); type: cell-based, Candida albicans; details: C. albicans 10^6 cells/mL, candidacidal concentration, 90 min, 37 °C; BM2 0.25 μM
Description: Total ATP was measured by using the BacTiter-Glo^TM Microbial Cell Viability Assay (Promega Co., Madison, WI, USA) according to the manufacturer’s instructions. […] Aliquots (100 μL) were incubated (90 min at 37 °C) with kaliocin-1, Kdp15, or human lactoferrin and the BM2 peptide (positive control). One hundred microliters of incubation mix was transferred into a 96-well opaque white plate, mixed with an equal volume of the BacTiter-Glo reagent, and incubated for 15 min in the dark. The reagent used a thermostable luciferase to produce luminescence in an ATP-dependent manner. The emitted luminescence was detected by using a Varioskan Flash multimode reader (Thermo Scientific, Waltham, MA, USA) with a 10 s of shaking and 1 s integration time. A calibration curve was prepared for each experiment, with ATP standards ranging from 1 to 1000 nM. For assays performed in the presence of the BM2 peptide, samples were preincubated with 0.25 μM BM2 for 30 min at 37 °C. All the tests were performed in triplicate at least four times.

Pma1p H^+-ATPase = Pma1p H^+-ATPase (Candida albicans, UniProt P28877); details: starved C. albicans 10^7 cells/mL in 50 mM KCl, pre-incubated with peptide 2 × IC50, 2.5 mM glucose; control ~1.3 pH units
Pma1p H^+-ATPase, sequence (P28877 whole entry): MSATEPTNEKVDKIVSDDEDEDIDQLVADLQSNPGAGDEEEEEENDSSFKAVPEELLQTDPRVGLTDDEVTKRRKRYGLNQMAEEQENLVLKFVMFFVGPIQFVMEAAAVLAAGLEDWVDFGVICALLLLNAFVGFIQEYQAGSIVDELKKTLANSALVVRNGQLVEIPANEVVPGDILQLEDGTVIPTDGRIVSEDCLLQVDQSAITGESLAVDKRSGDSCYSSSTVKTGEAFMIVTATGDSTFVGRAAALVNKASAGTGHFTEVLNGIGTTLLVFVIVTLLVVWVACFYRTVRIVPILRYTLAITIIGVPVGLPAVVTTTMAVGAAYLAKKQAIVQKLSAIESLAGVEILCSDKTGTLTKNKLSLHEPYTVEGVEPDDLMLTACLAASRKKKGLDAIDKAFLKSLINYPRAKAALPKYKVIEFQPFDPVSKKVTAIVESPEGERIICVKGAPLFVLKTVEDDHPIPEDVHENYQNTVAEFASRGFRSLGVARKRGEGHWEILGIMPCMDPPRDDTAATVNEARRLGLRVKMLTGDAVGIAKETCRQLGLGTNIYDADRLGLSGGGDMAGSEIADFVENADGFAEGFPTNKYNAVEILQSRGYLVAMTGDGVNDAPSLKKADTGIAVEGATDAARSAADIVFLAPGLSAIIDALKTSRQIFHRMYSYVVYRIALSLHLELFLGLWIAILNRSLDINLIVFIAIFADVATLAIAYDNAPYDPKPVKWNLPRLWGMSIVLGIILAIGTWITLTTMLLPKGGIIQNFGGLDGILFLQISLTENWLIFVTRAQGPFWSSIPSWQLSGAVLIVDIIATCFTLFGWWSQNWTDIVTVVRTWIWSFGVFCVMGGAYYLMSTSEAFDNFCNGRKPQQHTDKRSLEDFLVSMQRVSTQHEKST
Description: C. albicans cells (10^7 cells/mL) in 50 mM KCl were preincubated with the peptides (2 × IC50) for 20 min. Glucose (final concentration of 2.5 mM) was then added to induce H^+ efflux via Pma1p H^+-ATPase, as indicated by the subsequent external acidification.
To measure the proton pumping activity of Pma1p H^+-ATPase, a glucose-induced acidification assay of the medium was performed as previously described [10]. Briefly, cultures of C. albicans cells were grown to the mid-log phase in SDB medium and washed twice in Tris buffer (pH 8.0). The cells were resuspended in 50 mM KCl and maintained for 18 h at 4 °C to reduce metabolic activity to a minimum (starvation conditions). To determine the external acidification, starved cells (~10^7 cells/mL) were incubated for 15 min at 30 °C in the absence or the presence of the peptides (2 × IC50). Human lactoferrin (20 μM) was used as a positive control. The initial pH of cellular suspension was adjusted with HCl to pH 6.6 (approx.) and glucose was immediately added (final concentration, 2.5 mM) to the cellular suspension. The pH of the medium was recorded at 1 min intervals for 20 min using a SevenMulti S50-K pH meter (Mettler-Toledo, Greifensee, Switzerland) with a calibrated electrode (InLab 413, Mettler-Toledo) with constant stirring. Every experiment was performed using two replicates and repeated independently three times.

C. albicans cells [8] = assay: Extracellular potassium measurement (K+ efflux, ICP-OES); type: cell-based, Candida albicans; details: 10^7 cells/mL, peptides 2 × IC50, 37 °C
Description: (§8) Figure 2 Potassium efflux induced by hLf γ-core-containing peptides. (A,D) Kinetics of K^+ efflux. C. albicans or P. aeruginosa (10^7 cells/mL) were incubated with kaliocin-1, Kdp15, human lactoferrin (hLf), and Lfpep. hLf and Lfpep were used as negative and positive controls of the membrane permeabilization, respectively. The effect of antifungal BM2 peptide was evaluated. The extracellular K^+ concentration was quantified at different times. (B,C,E) Effect of extracellular K^+ and TEA^+ on microbicidal activity. (B,E) microbicidal activity was assessed in Tris buffer in the absence or in the presence of 50 mM KCl or (C) 10 mM TEA^+. Cell viability was determined by plating aliquots of the cell suspensions. The percentage of viable cells was determined relative to that for cells incubated without peptides (control). […]
(§9) Measurements of potassium were performed using inductively coupled plasma optical emission spectrometry (ICP-OES) with a Perkin-Elmer Optima 2000 DV spectrometer. […] The percentage of cytosolic K^+ released from cell suspensions treated with Lfpep was determined in positive control assays. The total cellular K^+ content (100% value) was measured in the supernatant of cellular suspensions previously treated only with 0.5% (v/v) HClO4, heated for 1 h at 95 °C, and centrifuged to remove cell debris. […]

P. aeruginosa cells [9] = assay: as above; type: cell-based, Pseudomonas aeruginosa; details: 10^7 cells/mL, peptides 2 × IC50, 37 °C
Description: as §8, §9

[10] = system: Candida albicans ATCC 10231; details: used in control assays; cited from earlier work
Description: First, we tested the antimicrobial activity of Kal-1 and a shorter Kal-1-derived peptide (Kdp15), both containing the complete γ-core signature of human lactoferrin, against C. albicans and P. aeruginosa. Microbicidal (cidal) activity was determined after 90 min of incubation (37 °C; pH 7.4) with a range of concentrations of each hLf-derived peptide. The hLf γ-core-containing peptides were microbicidal in a concentration-dependent way (Figure 1). […] The IC50 es ...

[11] = cells pre-incubated 15 min, 37 °C with 32 μM piericidin A, then 90 min with peptide

Sequence	pIC50 [1]	effect of high external K^+ on candidacidal activity [1]	effect of mitochondrial ATP synthase inhibition (oligomycin A) on candidacidal activity ([1]; cells pre-incubated 15 min, 37 °C with 16 μg/mL oligomycin A)	effect of respiration inhibition (piericidin A) on candidacidal activity [1, 11]	effect of Tok1p K^+ channel block (TEA^+) on candidacidal activity ([1]; cells pre-incubated 15 min with 10 mM TEA^+)	IC50 against C. albicans relative to IC50 of native hLf (fold greater) ([1]; vs hLf IC50 3 μM) [fold]	pIC50 [2]	effect of high external K^+ on pseudomonacidal activity [2]	effect of respiration inhibition (piericidin A) on pseudomonacidal activity [2, 11]	PI fluorescent cells (plasma membrane permeabilization), C. albicans (C. albicans cells [3])	PI fluorescent cells (plasma membrane permeabilization), P. aeruginosa (P. aeruginosa cells [4])	oxygen consumption of C. albicans in presence of the substance (C. albicans cells [5])	oxygen consumption of P. aeruginosa in presence of the substance (P. aeruginosa cells [6])	increment in intracellular ATP (iATP) level compared to untreated control (C. albicans cells [7])	decrease of external pH after 20 min (glucose-induced acidification) (Pma1p H^+-ATPase)	K^+ efflux from C. albicans, in words (C. albicans cells [8])	K^+ efflux from P. aeruginosa, in words (P. aeruginosa cells [9])	previously reported microbicidal concentration (organism not given) [10] [µM]
NLCRLCAGTGENKCA [Kdp15]	4.00	seemed to protect	less susceptible	less susceptible	less susceptible	~33	5.52	seemed to protect	less susceptible	not significantly increased	not significantly increased	equal to that of untreated (control) cells	equal to that of untreated (control) cells	~ 5 fold	approximately 0.5 pH units			
TKCFQWQRNMRKVRGPPVSCIKR [Lfpep, antimicrobial hLf-derived peptide without a γ-core motif that permeabilizes bacterial and fungal cytoplasmic membranes, reference compound]	4.70	not modified					6.30	not modified		significant increase	significant increase					rapid and increased K^+ release	rapid and increased K^+ release	50
